Source: ChEMBL document CHEMBL1201862, “PubChem BioAssay data set” (2004)
Activity calls are given as the source filed them.

Legend:
H4 = assay: Luminescence Cell-Based Dose Response HTS to Identify Activators of 5'UTR Stem-Loop Driven Prion Protein mRNA Translation in H4 Neuroglioblastoma Cells. [Related pubchem assays: 1829 (Project Summary), 1814 (Primary HTS)]; assay type: functional; settings: Homo sapiens
[1] = Luminescence Cell-Based Dose Confirmation HTS to Identify Activators of 5'UTR Stem-Loop Driven Alpha-Synuclein mRNA Translation in H4 Neuroglioblastoma Cells. [Related pubchem assays: 1829 (Project Summary), 1814 (Primary HTS)]; assay type: functional
[2] = Luminescence Cell-Based Dose Response HTS to Identify Activators of Luciferase Translation or Activity in H4 […] Cells. [Related pubchem assays: 1829 (Project Summary), 1814 (Primary HTS)]; assay type: functional
[3] = target: FAD-linked sulfhydryl oxidase ALR (Homo sapiens, UniProt P55789); assay: ALR-catalysed DTT oxidation blockers – biochemical, H2O2 detection, luminescence, cherry-pick, dose response (AID 493248)
Chain of FAD-linked sulfhydryl oxidase ALR (P55789 whole entry): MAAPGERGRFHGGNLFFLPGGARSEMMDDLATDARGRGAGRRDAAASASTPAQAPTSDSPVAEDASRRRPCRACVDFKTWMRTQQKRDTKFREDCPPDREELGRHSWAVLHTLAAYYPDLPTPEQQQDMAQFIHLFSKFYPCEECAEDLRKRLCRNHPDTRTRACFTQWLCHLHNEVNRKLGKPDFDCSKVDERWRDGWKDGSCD

Genome polyprotein = Genome polyprotein (dengue virus type 2, UniProt P29990); assay: flavivirus cap methylation enzyme inhibition – biochemical, confirmation dose response, primary screen (AID 588689); assay type: functional
Chain of Genome polyprotein (P29990 2492-3391 limits assumed): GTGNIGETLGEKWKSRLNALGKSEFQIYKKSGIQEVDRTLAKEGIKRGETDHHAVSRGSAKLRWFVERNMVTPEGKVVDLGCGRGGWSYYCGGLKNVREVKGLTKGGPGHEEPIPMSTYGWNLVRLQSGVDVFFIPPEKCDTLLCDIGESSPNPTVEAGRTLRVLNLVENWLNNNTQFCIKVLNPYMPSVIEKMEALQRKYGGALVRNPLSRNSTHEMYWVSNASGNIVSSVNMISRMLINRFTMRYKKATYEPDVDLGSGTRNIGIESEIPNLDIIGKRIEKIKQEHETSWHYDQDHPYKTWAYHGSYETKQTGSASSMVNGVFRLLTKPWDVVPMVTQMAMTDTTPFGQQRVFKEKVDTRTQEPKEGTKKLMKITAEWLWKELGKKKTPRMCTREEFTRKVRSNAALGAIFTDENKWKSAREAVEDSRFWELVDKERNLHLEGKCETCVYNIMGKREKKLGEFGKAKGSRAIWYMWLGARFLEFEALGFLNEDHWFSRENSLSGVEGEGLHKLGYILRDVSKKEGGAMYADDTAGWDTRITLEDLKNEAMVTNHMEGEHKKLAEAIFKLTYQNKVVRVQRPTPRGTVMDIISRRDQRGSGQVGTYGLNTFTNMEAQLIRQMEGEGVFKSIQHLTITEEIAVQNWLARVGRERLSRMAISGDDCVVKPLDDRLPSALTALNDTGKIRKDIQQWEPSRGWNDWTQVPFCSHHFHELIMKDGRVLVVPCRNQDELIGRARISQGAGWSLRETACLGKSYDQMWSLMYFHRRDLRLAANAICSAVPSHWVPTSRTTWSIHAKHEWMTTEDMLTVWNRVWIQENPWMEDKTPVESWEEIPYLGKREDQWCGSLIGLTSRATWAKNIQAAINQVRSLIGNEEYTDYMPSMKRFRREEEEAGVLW

Fatty acid synthase [4] = target: T1, Fatty acid synthase (Homo sapiens, UniProt P49327); assay: inhibition of human FAS-TE enzyme activity – biochemical, kinetic fluorescence intensity, dose response (AID 624326); assay type: functional;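 also: rate of fluorescence rise from hydrolysis of a fluorogenic O-methyl fluorescein ester substrate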
T1 sequence (P49327 whole entry): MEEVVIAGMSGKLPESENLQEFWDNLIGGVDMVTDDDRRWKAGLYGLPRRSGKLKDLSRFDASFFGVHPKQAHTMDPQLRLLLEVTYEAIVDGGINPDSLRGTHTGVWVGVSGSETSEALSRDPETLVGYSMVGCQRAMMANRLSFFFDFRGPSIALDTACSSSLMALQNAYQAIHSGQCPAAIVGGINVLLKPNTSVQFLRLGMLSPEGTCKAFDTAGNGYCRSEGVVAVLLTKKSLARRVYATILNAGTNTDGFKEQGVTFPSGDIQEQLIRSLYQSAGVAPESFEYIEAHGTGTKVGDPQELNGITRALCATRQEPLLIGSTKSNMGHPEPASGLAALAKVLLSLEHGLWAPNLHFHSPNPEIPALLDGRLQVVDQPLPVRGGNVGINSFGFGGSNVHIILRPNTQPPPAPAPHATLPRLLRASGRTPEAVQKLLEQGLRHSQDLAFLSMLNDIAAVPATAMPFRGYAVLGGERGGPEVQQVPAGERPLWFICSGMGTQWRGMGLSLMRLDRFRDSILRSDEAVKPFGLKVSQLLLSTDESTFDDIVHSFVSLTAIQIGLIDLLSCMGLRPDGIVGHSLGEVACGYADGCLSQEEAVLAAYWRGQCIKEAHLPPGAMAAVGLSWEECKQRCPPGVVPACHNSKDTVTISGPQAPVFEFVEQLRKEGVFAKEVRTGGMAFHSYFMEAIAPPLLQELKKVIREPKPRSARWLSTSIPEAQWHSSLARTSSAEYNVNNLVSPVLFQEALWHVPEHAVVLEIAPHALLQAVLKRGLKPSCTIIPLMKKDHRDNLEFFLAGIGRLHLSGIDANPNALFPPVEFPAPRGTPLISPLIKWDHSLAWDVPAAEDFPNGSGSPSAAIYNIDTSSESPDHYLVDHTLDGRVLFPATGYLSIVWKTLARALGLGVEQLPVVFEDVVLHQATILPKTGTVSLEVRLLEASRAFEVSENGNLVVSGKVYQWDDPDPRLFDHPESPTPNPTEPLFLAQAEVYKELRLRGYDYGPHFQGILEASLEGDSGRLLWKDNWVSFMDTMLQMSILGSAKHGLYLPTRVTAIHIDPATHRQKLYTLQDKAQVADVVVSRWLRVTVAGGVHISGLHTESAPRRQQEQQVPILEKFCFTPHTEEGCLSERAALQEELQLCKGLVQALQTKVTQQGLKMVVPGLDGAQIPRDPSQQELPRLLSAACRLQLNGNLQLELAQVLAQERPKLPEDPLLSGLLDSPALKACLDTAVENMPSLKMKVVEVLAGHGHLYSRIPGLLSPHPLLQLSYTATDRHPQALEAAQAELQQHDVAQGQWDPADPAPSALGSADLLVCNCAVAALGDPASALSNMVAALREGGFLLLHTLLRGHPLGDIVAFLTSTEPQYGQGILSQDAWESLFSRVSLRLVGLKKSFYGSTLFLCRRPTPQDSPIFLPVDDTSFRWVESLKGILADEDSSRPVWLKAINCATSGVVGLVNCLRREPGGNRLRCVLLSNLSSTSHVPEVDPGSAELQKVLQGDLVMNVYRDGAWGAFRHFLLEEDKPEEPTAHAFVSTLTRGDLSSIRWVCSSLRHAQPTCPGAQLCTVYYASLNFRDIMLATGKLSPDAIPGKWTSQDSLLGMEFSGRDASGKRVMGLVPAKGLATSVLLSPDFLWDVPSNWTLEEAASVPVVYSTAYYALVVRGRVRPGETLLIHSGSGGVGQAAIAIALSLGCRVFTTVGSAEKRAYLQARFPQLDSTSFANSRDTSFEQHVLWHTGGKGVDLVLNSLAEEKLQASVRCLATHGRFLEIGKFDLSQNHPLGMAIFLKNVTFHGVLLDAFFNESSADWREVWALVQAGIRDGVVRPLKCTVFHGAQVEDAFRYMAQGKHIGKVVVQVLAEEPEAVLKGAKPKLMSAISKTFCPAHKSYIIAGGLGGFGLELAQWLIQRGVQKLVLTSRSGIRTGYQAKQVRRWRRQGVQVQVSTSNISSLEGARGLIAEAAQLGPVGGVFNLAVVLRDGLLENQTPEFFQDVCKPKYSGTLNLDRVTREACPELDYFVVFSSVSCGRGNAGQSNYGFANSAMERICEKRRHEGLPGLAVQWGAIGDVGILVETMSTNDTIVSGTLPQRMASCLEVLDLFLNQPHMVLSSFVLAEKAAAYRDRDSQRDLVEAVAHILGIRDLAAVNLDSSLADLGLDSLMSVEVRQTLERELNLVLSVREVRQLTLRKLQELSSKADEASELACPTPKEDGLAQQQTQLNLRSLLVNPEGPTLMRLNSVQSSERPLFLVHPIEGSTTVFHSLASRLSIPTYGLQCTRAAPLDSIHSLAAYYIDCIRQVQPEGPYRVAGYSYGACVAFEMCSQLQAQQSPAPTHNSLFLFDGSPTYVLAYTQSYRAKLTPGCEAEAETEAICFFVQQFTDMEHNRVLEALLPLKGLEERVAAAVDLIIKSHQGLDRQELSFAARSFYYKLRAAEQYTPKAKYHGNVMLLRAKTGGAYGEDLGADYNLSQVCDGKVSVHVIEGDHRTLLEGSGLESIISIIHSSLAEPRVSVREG

Fatty acid synthase [5] = target: T1, Fatty acid synthase; assay: inhibition of human FAS-TE enzyme activity – biochemical, endpoint fluorescence intensity, uHTS hits, dose response (AID 624327); assay type: functional;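 also: fluorescence from hydrolysis of an O-methyl fluorescein acyl ester substrate by the enzyme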
Leucine aminopeptidase = target: T2, Leucine aminopeptidase (Plasmodium falciparum 3D7, UniProt Q8IL11); assay: P. falciparum M17LAP inhibitors, primary screen, biochemical, fluorogenic H-Leu-NHMec substrate, 1536-well (AID 1619); assay type: functional
T2 sequence (Q8IL11 whole entry): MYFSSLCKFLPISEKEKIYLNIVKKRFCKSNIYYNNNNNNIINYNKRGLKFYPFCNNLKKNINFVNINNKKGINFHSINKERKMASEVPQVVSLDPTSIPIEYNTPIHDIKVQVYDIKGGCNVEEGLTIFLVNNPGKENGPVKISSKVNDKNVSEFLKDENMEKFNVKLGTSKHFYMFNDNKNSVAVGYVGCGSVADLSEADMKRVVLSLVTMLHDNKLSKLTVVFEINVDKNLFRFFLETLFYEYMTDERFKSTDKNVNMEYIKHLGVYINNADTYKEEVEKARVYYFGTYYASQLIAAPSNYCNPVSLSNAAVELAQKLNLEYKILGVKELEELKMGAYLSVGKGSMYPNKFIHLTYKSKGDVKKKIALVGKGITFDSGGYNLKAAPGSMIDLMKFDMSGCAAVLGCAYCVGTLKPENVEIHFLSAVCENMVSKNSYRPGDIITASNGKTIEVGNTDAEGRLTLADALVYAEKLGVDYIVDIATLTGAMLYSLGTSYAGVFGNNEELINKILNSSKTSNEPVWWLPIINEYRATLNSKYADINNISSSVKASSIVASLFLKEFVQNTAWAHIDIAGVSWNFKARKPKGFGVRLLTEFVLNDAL

[6] = target: T3, RNA-binding protein pos-1 (Caenorhabditis elegans, UniProt G5EF15); assay: disruptors of C. elegans POS-1 RNA interaction – biochemical, fluorescence polarization, dose response (AID 1964);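 also: purified POS-1 fused to maltose binding protein made in E. coli; potency of compounds blocking POS-1 binding to fluorescent RNA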
T3 sequence (G5EF15 whole entry): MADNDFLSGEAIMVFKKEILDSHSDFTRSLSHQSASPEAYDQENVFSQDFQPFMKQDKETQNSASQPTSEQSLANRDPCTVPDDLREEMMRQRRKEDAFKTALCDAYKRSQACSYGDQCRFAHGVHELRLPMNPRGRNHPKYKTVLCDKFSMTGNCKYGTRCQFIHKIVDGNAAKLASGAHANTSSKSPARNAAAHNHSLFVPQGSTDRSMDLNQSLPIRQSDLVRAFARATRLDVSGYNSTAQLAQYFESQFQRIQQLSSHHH

[7] = target: T4, Zinc finger protein mex-5 (Caenorhabditis elegans, UniProt Q9XUB2); assay: potency of MEX-5 RNA-binding blockers – biochemical, C. elegans, fluorescence polarization, dose response (AID 1960)
T4 sequence (Q9XUB2 whole entry): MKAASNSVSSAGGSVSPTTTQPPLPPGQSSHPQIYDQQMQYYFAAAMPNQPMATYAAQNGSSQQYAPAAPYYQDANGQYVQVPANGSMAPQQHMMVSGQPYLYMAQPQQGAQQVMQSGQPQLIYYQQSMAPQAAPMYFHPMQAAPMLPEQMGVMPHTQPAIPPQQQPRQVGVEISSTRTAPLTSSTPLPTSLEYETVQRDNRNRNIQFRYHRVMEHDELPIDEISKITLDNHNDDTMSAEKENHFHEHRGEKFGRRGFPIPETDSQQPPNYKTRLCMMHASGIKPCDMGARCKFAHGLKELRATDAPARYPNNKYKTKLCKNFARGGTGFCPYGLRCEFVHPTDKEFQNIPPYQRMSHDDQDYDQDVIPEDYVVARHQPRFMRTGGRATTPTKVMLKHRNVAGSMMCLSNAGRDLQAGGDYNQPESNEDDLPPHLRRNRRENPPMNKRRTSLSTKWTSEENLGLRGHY

[8] = P. falciparum Dd2 growth inhibitors, dose response, SYBR Green, cherry-picked samples (AID 1159567); assay type: functional, cell-based

For `CCSc1nnc(-c2c[nH]c3ccccc23)o1`, the EC50 (H4) was 24.7 µM (inconclusive), the EC50 [1] was 63.9 µM (active) and the EC50 [2] was 21.1 µM (active).

For `CC(C)c1ccc(/C=C2\SC(=O)N(CC(=O)NCCCn3ccnc3)C2=O)cc1`, the EC50 (H4) was 18.7 µM (active), the EC50 [1] was 29.8 µM (active) and the EC50 [2] was 0.418 µM (active). The AC50 [3] was 1.75 µM (active).

In the case of `CCc1ccc(NC(=O)c2[nH]c(C)c(C(C)=O)c2C)cc1`, the EC50 [1] is reported as 1.62 µM (active) and the EC50 [2] is reported as 2.6 µM (active).

In the case of `COc1cccc(/C=C/c2nc(O)nc(O)c2[N+](=O)[O-])c1O`, the IC50 (Genome polyprotein) is reported as 72.5 µM (active) and the AC50 [3] is reported as 39.1 µM (active).

With `COCCCn1c(SCC(=O)Nc2ccc(C(C)=O)cc2)nc2ccccc2c1=O` the EC50 (H4) was 68.6 µM (active), the EC50 [1] was 13.9 µM (active) and the EC50 [2] was 22.8 µM (active).

With `CCN(CCCNC(=O)CNC(=O)Cn1cnc2ccccc2c1=O)c1ccccc1` the AC50 [3] was 0.729 µM (active).

For `COC(=O)CC(NC(=O)Nc1ccc(C)cc1)c1cccc([N+](=O)[O-])c1` (stereo not drawn), the IC50 (Fatty acid synthase [4]) was 8.7 µM (active) and the IC50 (Fatty acid synthase [5]) was 11.5 µM (active).

In the case of `O=C1CS/C(=C\S(=O)(=O)c2ccc(Cl)cc2)N1`, the IC50 (Leucine aminopeptidase) is reported as 40 µM (active).

With `O=C(Nn1c(C2CCCCC2)nc2ccccc2c1=O)c1ccc([N+](=O)[O-])cc1Cl` the IC50 (Fatty acid synthase [4]) was 18.9 µM (active) and the IC50 (Fatty acid synthase [5]) was 19.3 µM (active).

With `O=C1CN(C(=O)c2cc([N+](=O)[O-])ccc2Cl)C(c2ccccc2)c2cc(F)ccc2N1` (stereo not drawn) the IC50 (Fatty acid synthase [4]) was 1.99 µM (active) and the IC50 (Fatty acid synthase [5]) was 1.36 µM (active).

With `COc1ccc(C(=O)CCN2CCc3cc(OC)c(OC)cc3C2)cc1` the AC50 [3] was 1.84 µM (active).

In the case of `O=C(Cn1cnc2ccccc2c1=O)Nc1ccc2c(c1)CCC2`, the IC50 (Leucine aminopeptidase) is reported as 5.23 µM (active).

With `COc1ccc(C2CC23N=C(c2ccccc2)OC3=O)cc1` (stereo not drawn) the IC50 (Fatty acid synthase [4]) was 0.712 µM (active) and the IC50 (Fatty acid synthase [5]) was 0.724 µM (active).

In the case of `O=C(Nc1nc(=O)n(C(=O)C2CC2)s1)c1ccccc1`, the IC50 (Leucine aminopeptidase) is reported as 40.7 µM (active).

For `O=C(NCCc1cccs1)C1CC(c2ccc([N+](=O)[O-])cc2)=NO1` (stereo not drawn), the EC50 (H4) was 16.2 µM (active), the EC50 [1] was 118 µM (active) and the EC50 [2] was 50.8 µM (active).

In the case of `COC(=O)c1ccc(NS(=O)(=O)NC(=O)c2cn(C)c3ccccc23)cc1`, the EC50 (H4) is reported as > 120 µM (not active), the EC50 [1] is reported as > 120 µM (not active) and the EC50 [2] is reported as > 120 µM (not active).

With `FC(F)(F)c1c[nH]c2c(-c3ccccc3)nnc-2c1` the EC50 (H4) was 13.9 µM (active), the EC50 [1] was 1.29 µM (active) and the EC50 [2] was 19.3 µM (active).

For `NNC(=O)c1cccc(COc2ccccc2Br)c1`, the AC50 [3] was > 100 µM (inactive).

For `Cc1nn(-c2cc(C)c3ccccc3n2)c2c1CCC2`, the EC50 (H4) was 80.3 µM (active), the EC50 [1] was 4.27 µM (active) and the EC50 [2] was 18.8 µM (active).

For `Nc1[nH]nc2nc(N3CCOCC3)nc(-c3ccccc3)c12`, the IC50 (Leucine aminopeptidase) was 6.77 µM (active).

With `O=C(O)CC12CC3CC(C1)CC(n1ncc(NCc4ccc5c(c4)OCO5)c(Cl)c1=O)(C3)C2` the IC50 (Leucine aminopeptidase) was 40.6 µM (active).

In the case of `O=C(O)CN1C(=O)/C(=C\c2ccccc2OCc2ccc(F)cc2)SC1=S`, the IC50 (Genome polyprotein) is reported as 43.2 µM (active).

In the case of `Cc1ccc2c(c1)C(=O)C(=O)N2CCCOc1ccccc1C`, the IC50 (Genome polyprotein) is reported as > 100 µM (active).

In the case of `CSc1ccc(Cl)c(C(=O)OCC(=O)NCc2ccco2)c1`, the IC50 (Leucine aminopeptidase) is reported as 49.9 µM (active).

For `Cc1ccc(S(=O)(=O)c2cc3c(=O)n4ccccc4nc3n(CCc3ccccc3)c2=N)cc1`, the EC50 (H4) was 0.713 µM (active), the EC50 [1] was 97.9 µM (active) and the EC50 [2] was > 120 µM (not active). The EC50 [6] was 111 µM (inconclusive) and the EC50 [7] was 3.75 µM (inconclusive).

In the case of `Cc1cccc(CSC2=NCCN2C(=O)c2ccco2)c1`, the AC50 [3] is reported as 11 µM (active).

In the case of `CCOc1ccc(CCNC(=O)COC(=O)c2cc([N+](=O)[O-])ccc2N2CCOCC2)cc1OCC`, the IC50 (Fatty acid synthase [4]) is reported as 9.59 µM (active) and the IC50 (Fatty acid synthase [5]) is reported as 10.1 µM (active).

In the case of `COc1ccc(C(=O)C[n+]2ccccc2C=NO)cc1`, the EC50 (H4) is reported as 32 µM (active), the EC50 [1] is reported as 12.5 µM (active) and the EC50 [2] is reported as 12.1 µM (active).

In the case of `Cc1cc(Br)ccc1NC(=O)CN(C)C(=O)c1cc([N+](=O)[O-])ccc1N1CCOCC1`, the IC50 (Fatty acid synthase [4]) is reported as 4.65 µM (active) and the IC50 (Fatty acid synthase [5]) is reported as 8.23 µM (active).

With `CC(=O)N(C(C)=O)N1C(=O)C2C3c4ccccc4C(c4ccccc43)C2C1=O` (stereo not drawn) the IC50 (Genome polyprotein) was 53.8 µM (active).

In the case of `Cc1cc(-c2nnc3n2N=C(c2ccc(F)cc2)CS3)[nH]n1`, the EC50 (H4) is reported as > 120 µM (not active), the EC50 [1] is reported as > 120 µM (not active) and the EC50 [2] is reported as > 120 µM (not active).

In the case of `Cc1[nH]c2ccccc2c1C(=O)COc1ccccc1`, the EC50 (H4) is reported as 13.2 µM (active), the EC50 [1] is reported as 18.7 µM (active) and the EC50 [2] is reported as 16.4 µM (active).

With `N=C(NOC(=O)c1ccco1)c1ccc(Cl)cc1` the AC50 [3] was 13.1 µM (active).

For `CN1C[C@H](C(=O)NC2(C)OC3(O)[C@@H]4CCCN4C(=O)[C@H](Cc4ccccc4)N3C2=O)CC2c3cccc4[nH]cc(c34)C[C@H]21` (stereo partly drawn), the IC50 (Fatty acid synthase [4]) was 11.8 µM (active) and the IC50 (Fatty acid synthase [5]) was 10.3 µM (active).

With `Nc1c(Br)cc(Br)c2c1C(=O)c1c(cccc1S(=O)(=O)O)C2=O` the IC50 (Genome polyprotein) was 96.1 µM (active).

For `Cc1ccc(NC2CCCN(C(=O)Cc3nonc3C)C2)cc1C` (stereo not drawn), the AC50 [3] was 2.54 µM (active).

With `COc1ccc(C(=O)NCCNc2ncc(C(F)(F)F)cc2Cl)cc1[N+](=O)[O-]` the IC50 (Fatty acid synthase [4]) was 12 µM (active) and the IC50 (Fatty acid synthase [5]) was 12.7 µM (active).

For `Cc1nn(CCOc2ccc(Br)cc2)c(C)c1[N+](=O)[O-]`, the IC50 (Fatty acid synthase [4]) was 24.6 µM (inactive) and the IC50 (Fatty acid synthase [5]) was 15.9 µM (active).

For `CO[C@H]1CN(C)C(=O)c2cc(NC(=O)c3cc(C)on3)ccc2OC[C@H](C)N(C(=O)C2CC2)C[C@H]1C`, the AC50 [8] was 4.96 µM (active).

With `CCC(=O)N1[C@H](CO)[C@H](c2ccc(C3=CCCCC3)cc2)[C@H]1CNCC1CCC1` the AC50 [8] was 3.46 µM (active).

For `CCCC(=O)N1CC2(C1)CN(Cc1ccc(Cl)cc1)[C@@H](CO)c1[nH]c3cc(OC)ccc3c12`, the AC50 [8] was 5.26 µM (active).

For `CO[C@H]1CN(C)C(=O)c2ccc(NC(=O)Nc3ccc(C(F)(F)F)cc3)cc2OC[C@@H](C)NC[C@@H]1C`, the AC50 [8] was 9.45 µM (active).
